Test results taken from US20250163054A1, “SUBSTITUTED BICYCLIC HETEROARYL COMPOUNDS USEFUL AS INHIBITORS OF TLR9” (Bristol-Myers Squibb Company, priority 2022, published 2025).
pIC50: −log10 of the molar value.

Experiments:
Assay type in all cases: cell-based
human TLR9 = target: T1, human TLR9 (Homo sapiens, UniProt Q9NR96); assay: TLR7/8/9 Inhibition Reporter Assays (TLR9); conditions: HEK-Blue cells overexpressing human TLR9, SEAP reporter, stimulated with TLR9 ligand ODN2006
T1 construct: host or cells: HEK-Blue cells (HEK293-derived reporter line)
T1 sequence (Q9NR96 26-1032): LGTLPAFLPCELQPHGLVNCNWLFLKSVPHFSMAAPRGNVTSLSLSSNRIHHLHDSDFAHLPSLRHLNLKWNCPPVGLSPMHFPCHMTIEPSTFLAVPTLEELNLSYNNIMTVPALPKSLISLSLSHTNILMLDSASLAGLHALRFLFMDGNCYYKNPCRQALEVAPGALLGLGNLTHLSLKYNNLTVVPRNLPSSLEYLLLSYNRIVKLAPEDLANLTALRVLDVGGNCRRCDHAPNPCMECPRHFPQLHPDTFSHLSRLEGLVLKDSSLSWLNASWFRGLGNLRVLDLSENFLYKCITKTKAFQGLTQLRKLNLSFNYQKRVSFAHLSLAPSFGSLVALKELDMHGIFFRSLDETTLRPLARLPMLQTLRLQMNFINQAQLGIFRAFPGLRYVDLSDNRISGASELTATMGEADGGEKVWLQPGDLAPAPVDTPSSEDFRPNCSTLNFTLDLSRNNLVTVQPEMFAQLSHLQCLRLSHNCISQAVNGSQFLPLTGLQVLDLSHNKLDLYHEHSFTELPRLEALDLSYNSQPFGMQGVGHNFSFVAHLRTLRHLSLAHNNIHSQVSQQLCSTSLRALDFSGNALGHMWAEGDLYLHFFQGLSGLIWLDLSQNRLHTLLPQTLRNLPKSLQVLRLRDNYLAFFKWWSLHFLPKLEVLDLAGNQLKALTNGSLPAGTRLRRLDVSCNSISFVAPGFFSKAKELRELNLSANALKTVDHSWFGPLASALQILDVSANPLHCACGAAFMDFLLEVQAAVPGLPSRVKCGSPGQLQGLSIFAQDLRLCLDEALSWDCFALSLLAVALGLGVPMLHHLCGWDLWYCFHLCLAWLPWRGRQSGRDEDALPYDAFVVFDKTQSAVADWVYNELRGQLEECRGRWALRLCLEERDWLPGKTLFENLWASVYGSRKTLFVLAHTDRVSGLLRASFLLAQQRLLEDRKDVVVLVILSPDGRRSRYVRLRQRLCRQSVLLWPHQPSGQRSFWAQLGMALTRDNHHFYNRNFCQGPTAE
In short: (§1)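 HEK-Blue cells overexpressing human TLR7, TLR8 or TLR9 with NF-κB/AP-1-driven SEAP reporter, pre-treated 60 min with compound ([…]). Stimulated with […] (TLR7), […] (TLR8) or ODN2006 200 nM (TLR9), then 22 h at 37° C; SEAP measured, % inhibition relative to agonist-plus-DMSO and known-inhibitor wells.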

human TLR7 = target: T2, human TLR7 (Homo sapiens, UniProt Q9NYK1); assay: TLR7/8/9 Inhibition Reporter Assays (TLR7); conditions: HEK-Blue cells overexpressing human TLR7, SEAP reporter, stimulated with TLR7 ligand gardiquimod
T2 construct: host or cells: HEK-Blue cells (HEK293-derived reporter line)
T2 sequence (Q9NYK1 27-1049): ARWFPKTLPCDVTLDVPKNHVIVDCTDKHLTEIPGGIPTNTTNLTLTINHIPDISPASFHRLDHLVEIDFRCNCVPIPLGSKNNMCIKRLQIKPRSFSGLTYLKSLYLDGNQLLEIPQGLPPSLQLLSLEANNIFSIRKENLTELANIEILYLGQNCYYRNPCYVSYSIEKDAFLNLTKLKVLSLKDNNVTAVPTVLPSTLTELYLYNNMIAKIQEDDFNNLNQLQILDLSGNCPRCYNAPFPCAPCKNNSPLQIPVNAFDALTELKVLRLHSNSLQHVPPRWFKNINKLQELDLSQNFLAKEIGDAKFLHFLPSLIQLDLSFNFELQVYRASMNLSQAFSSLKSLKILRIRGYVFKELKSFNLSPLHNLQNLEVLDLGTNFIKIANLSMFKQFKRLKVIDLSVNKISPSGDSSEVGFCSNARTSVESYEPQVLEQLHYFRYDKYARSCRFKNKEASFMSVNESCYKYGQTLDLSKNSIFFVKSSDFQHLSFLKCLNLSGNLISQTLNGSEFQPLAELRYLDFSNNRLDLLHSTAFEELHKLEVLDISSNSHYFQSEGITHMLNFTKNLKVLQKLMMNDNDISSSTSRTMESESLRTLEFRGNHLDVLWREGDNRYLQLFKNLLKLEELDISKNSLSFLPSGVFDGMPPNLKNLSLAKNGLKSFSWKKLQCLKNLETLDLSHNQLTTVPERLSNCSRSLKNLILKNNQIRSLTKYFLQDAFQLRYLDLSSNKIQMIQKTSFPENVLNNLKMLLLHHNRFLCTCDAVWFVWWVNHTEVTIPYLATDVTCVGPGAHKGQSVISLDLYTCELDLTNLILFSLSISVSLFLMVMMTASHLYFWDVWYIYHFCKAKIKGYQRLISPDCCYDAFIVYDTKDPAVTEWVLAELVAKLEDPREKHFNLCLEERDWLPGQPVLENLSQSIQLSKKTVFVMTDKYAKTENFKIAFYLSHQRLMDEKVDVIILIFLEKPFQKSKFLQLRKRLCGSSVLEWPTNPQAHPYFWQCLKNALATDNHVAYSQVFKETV
In short: as §1

human TLR8 = target: T3, human TLR8 (Homo sapiens, UniProt Q9NR97); assay: TLR7/8/9 Inhibition Reporter Assays (TLR8); conditions: HEK-Blue cells overexpressing human TLR8, SEAP reporter, stimulated with TLR8 ligand R848
T3 construct: host or cells: HEK-Blue cells (HEK293-derived reporter line)
T3 sequence (Q9NR97 27-1041): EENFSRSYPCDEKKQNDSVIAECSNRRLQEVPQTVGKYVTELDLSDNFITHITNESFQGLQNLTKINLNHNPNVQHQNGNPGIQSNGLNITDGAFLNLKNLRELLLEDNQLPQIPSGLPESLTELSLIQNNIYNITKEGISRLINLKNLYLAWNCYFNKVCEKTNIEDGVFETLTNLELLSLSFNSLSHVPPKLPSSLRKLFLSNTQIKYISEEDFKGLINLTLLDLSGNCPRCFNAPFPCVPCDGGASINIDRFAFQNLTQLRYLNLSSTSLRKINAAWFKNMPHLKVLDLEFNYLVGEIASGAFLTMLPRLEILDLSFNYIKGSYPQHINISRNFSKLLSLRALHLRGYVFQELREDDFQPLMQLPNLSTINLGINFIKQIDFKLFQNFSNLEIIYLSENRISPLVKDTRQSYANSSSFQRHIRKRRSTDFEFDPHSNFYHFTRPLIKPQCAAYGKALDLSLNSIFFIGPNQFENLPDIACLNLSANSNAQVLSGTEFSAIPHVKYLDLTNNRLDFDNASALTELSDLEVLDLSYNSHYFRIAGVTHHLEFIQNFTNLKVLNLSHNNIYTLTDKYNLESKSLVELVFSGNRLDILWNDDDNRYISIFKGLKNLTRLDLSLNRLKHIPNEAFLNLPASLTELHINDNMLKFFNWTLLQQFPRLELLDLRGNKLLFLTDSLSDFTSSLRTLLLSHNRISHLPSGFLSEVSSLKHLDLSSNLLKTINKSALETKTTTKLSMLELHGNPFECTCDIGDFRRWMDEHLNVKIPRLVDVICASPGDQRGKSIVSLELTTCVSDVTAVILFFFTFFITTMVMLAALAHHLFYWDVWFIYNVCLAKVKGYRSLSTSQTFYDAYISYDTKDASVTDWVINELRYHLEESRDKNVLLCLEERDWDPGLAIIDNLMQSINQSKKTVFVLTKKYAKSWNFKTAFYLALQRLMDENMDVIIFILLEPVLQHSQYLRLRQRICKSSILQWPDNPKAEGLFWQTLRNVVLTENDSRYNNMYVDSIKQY
In short: as §1

SMILES	pIC50 (human TLR9)	pIC50 (human TLR7)	pIC50 (human TLR8)
Cc1nc(-c2ccc(N3CC4(CCN(C(C)C)CC4)C3)cc2)cc2c1nc(-c1ccc(S(C)(=O)=O)cc1)n2C [Example 63, 6-(4-(7-isopropyl-2,7-diazaspiro[3.5]nonan-2-yl)phenyl)-1,4-dimethyl-2-(4-(methylsulfonyl)phenyl)-1H-imidazo[4,5-c]pyridine]	6.77	5.85	5.28
COc1ccc(-c2nc3c(C)nc(-c4ccc(N5CC6(CN(CC(C)C)C6)C5)cc4)cc3n2C)cc1OC [Example 71, 2-(3,4-dimethoxyphenyl)-6-(4-(6-isobutyl-2,6-diazaspiro[3.3]heptan-2-yl)phenyl)-1,4-dimethyl-1H-imidazo[4,5-c]pyridine]	6.89	6.00	4.77
COc1ccc(-c2nc3cnc(-c4ccc(N5CC6(CN(CC(C)C)C6)C5)cc4)cc3n2C2CC2)cc1OC [Example 85, 1-cyclopropyl-2-(3,4-dimethoxyphenyl)-6-(4-(6-isobutyl-2,6-diazaspiro[3.3]heptan-2-yl)phenyl)-1H-imidazo[4,5-c]pyridine]	6.77	5.49	5.60
COc1ccc(-c2nc3c(C)nc(-c4ccc(N5C[C@H]6CN(CC(C)C)C[C@H]6C5)cc4)cc3n2C)cc1OC [Example 65, 2-(3,4-dimethoxyphenyl)-6-(4-((3aR,6aS)-5-isobutylhexahydropyrrolo[3,4-c]pyrrol-2(1H)-yl)phenyl)-1,4-dimethyl-1H-imidazo[4,5-c]pyridine]	7.23	5.27	< 4.30
CC(C)N1CCC(N2CCC(c3cc4c(cn3)nc(-c3ccc(S(C)(=O)=O)cc3)n4C)CC2)CC1 [Example 30, 6-(1′-isopropyl-[1,4′-bipiperidin]-4-yl)-1-methyl-2-(4-(methylsulfonyl)phenyl)-1H-imidazo[4,5-c]pyridine]	5.85	< 4.60	< 4.60
CC(C)N1CCC(N2CCC(c3cc4c(nc(-c5ccc(S(C)(=O)=O)cc5)n4C)c(C(F)(F)F)n3)CC2)CC1 [Example 3, 6-(1′-isopropyl-[1,4′-bipiperidin]-4-yl)-1-methyl-2-(4-(methylsulfonyl)phenyl)-4-(trifluoromethyl)-1H-imidazo[4,5-c]pyridine]	6.96	5.51	< 4.30
COc1ccc(-c2nc3c(C)nc(-c4ccc(N5CCN(CC6CC6)CC5)cc4)cc3n2C)cc1OC [Example 18, 6-(4-(4-(cyclopropylmethyl)piperazin-1-yl)phenyl)-2-(3,4-dimethoxyphenyl)-1,4-dimethyl-1H-imidazo[4,5-c]pyridine]	6.85	5.82	4.74
Cc1cc(-c2nc3c(C)nc(-c4ccc(N5CCN(CC6CC6)CC5)cc4)cc3n2C)cc(C)n1 [Example 15, 6-(4-(4-(cyclopropylmethyl)piperazin-1-yl)phenyl)-2-(2,6-dimethylpyridin-4-yl)-1,4-dimethyl-1H-imidazo[4,5-c]pyridine]	6.34	5.96	4.74
Cc1nc(-c2ccc(CN3CCC(N4CCOCC4)CC3)cc2)cc2c1nc(-c1ccc(S(C)(=O)=O)cc1)n2C1CC1 [Example 48, 4-(1-(4-(1-cyclopropyl-4-methyl-2-(4-(methylsulfonyl)phenyl)-1H-imidazo[4,5-c]pyridin-6-yl)benzyl)piperidin-4-yl) morpholine]	6.57	5.42	5.77
COCCN1CC2(CCN(c3ccc(-c4cc5c(cn4)nc(-c4ccc(S(C)(=O)=O)cc4)n5C)cc3)CC2)C1 [Example 105, 6-(4-(2-(2-methoxyethyl)-2,7-diazaspiro[3.5]nonan-7-yl)phenyl)-1-methyl-2-(4-(methylsulfonyl)phenyl)-1H-imidazo[4,5-c]pyridine]	6.22	5.35	5.66
COc1ccc(-c2nc3c(C)nc(-c4ccc(N5C[C@@H]6CN(C7CCC7)C[C@@H]6C5)cc4)cc3n2C)cc1OC [Example 66, 6-(4-((3aR,6aS)-5-cyclobutylhexahydropyrrolo[3,4-c]pyrrol-2(1H)-yl)phenyl)-2-(3,4-dimethoxyphenyl)-1,4-dimethyl-1H-imidazo[4,5-c]pyridine]	7.54	5.64	4.70
CC(C)N1CCN(c2ccc(-c3cc4c(cn3)nc(-c3ccc(S(C)(=O)=O)cc3)n4C)cc2)CC1 [Example 70, 6-(4-(4-isopropylpiperazin-1-yl)phenyl)-1-methyl-2-(4-(methylsulfonyl)phenyl)-1H-imidazo[4,5-c]pyridine]	6.64	5.28	6.36
CC(C)N1CC2(CCN(c3ccc(-c4cc5c(cn4)nc(-c4ccc(S(C)(=O)=O)cc4)n5C)cc3)CC2)C1 [Example 95, 6-(4-(2-isopropyl-2,7-diazaspiro[3.5]nonan-7-yl)phenyl)-1-methyl-2-(4-(methylsulfonyl)phenyl)-1H-imidazo[4,5-c]pyridine]	6.46	5.68	6.05
